Results as given in patent publication US5773628A, “1,2-dioxetane compounds with haloalkoxy groups, methods preparation and use” (Tropix, Inc., priority 1994, dated 1998).
“Also recorded” adds a separate entry of the source.

Experiments:
[1] = Base-induced decomposition of hydroxy dioxetanes (first order decay of chemiluminescence); type: physicochemical; settings: 37° C.; 0.2M 2-methyl-2-amino-1-propanol buffer pH 9.6, 0.88 mM Mg+2, 1.0 mg/mL Enhancer A
Description: (§1) Calf intestinal alkaline phosphatase (AP) was obtained from Biozyme (San Diego, Calif.). Other chemical reagents were obtained from Aldrich Chemical Co. (Milwaukee). Nuclear magnetic resonance (NMR) spectra were obtained on a Varian Gemini 300 spectrometer as solutions in D2 O or CDCl3. Chemiluminescence intensities and rate measurements were performed using either a Turner Designs (Sunnyvale, Calif.) model TD-20e luminometer, a Luminoskan luminometer (Helsinki, Finland), a charge-coupled device camera luminometer constructed in the inventors' laboratory or a luminometer constructed in the inventors' laboratory consisting of an electrically heated sample block, an optical fiber and associated optics for light collection and a photomultiplier tube. Temperature control of samples analyzed in the commercial luminometers was achieved by means of a circulating bath connected to the instrument. Quantitative measurement of light intensities on the Turner luminometer was extended beyond the 10^4 linear range of the detector by a neutral density filter. Data collection from each of the instruments was controlled by an Apple MacIntosh SE/30 computer using the LUMISOFT data reduction program (Lumigen).
The first order decay of chemiluminescence of dioxetanes 1 and 3 in 0.2M 2-methyl-2-amino-1-propanol buffer, pH 9.6 containing 0.88 mM Mg^+2 and 1.0 mg/mL of Enhancer A at 37° C. was measured in a luminometer. The half-life of decay of chemiluminescence (t1/2) of dioxetanes 1 and 3 in 0.2M 2-methyl-2-amino-1-propanol buffer, pH 9.6 containing 0.88 mM Mg^+2 and 1.0 mg/mL of Enhancer A correlate with the times required to reach the maximum light intensity (Imax) in the alkaline phosphatase-triggered decomposition of dioxetanes 2 and 5 in the same buffer solution. The half-life of decay of luminescence of the hydroxy dioxetane homologous to a phosphate-protected dioxetane, therefore, is useful for predicting the grow-in kinetics of light emission for phosphatase triggering of the corresponding phosphate dioxetane. In particular, hydroxy dioxetanes which show a faster t1/2 than dioxetane 1 indicate that the corresponding phosphate dioxetanes are expected to reach Imax more quickly. Other hydroxy dioxetanes (7-9) were then examined under the same conditions.

[2] = system: Calf intestinal alkaline phosphatase (AP); assay: Kinetic profile of alkaline phosphatase-triggered chemiluminescence (time to 95% of maximum intensity); type: biochemical; settings: for Time to Reach 95% of Maximum Light Intensity from Alkaline Phosphatase-Triggering: 37° C.
Description: as §1
The improvement in detection speed afforded by compositions containing the phosphate dioxetane 5 is shown in Table 2 through a comparison with dioxetane 2 of the times to reach 95% of the maximum chemiluminescence intensities produced by reaction with AP. Three different reagent compositions containing either dioxetane 2, 4-methoxy-4-(3-phosphoryloxy-phenyl)spiro[1,2-dioxetane-3,2'-tricyclo-[3.3.1.1^3,7 ]decane], disodium salt, (LUMIGEN PPD, Lumigen, Inc.) or 5 were reacted at 37° C. with AP. Composition A consists of 0.33 mM dioxetane in 0.2M 2-methyl-2-amino-1-propanol buffer (pH 9.6) containing 1.0 mg/mL 1-(tri-n-octylphosphoniummethyl)-4-(tri-n-butylphosphonium-methyl) benzene dichloride (Enhancer A); 100 μL portions were reacted with 3.36×10^-16 mol of enzyme. Composition B consists of 0.33 mM dioxetane in 0.2M 2-methyl-2-amino-1-propanol buffer (pH 9.6) containing 0.5 mg/mL of polyvinylbenzyl-tributylphosphon ium chloride co-polyvinylbenzyltrioctyl-phosphonium chloride (containing a 3:1 ratio of tributyl:trioctyl groups) the preparation of which is described in European Patent Application 561,033 published Sep. 22, 1993 (Enhancer B); 100 μL portions were reacted with 3.36×10^-16 mol of enzyme. Composition C consists of 0.33 mM dioxetane in 0.2M 2-methyl-2-amino-1-propanol buffer (pH 9.6); 500 μL portions were reacted with 1.12×10^-15 mol of enzyme.

[3] = system: Calf intestinal alkaline phosphatase (AP); assay: Effect of enhancer concentration on AP-induced chemiluminescence intensity and kinetics; comparison of optimized solutions; type: biochemical
Description: FIG. 1 is a graph showing the time profiles of the chemiluminescence intensity emitted by 100 μL of a reagent containing dioxetane 5 (4-(2,2,2-trifluoroethoxy)-4-(3-phosphoryloxyphenyl)spiro[1,2-dioxetane-3,2'-tricyclo-[3.3.1.1^3,7 ]decane] disodium salt) and various amounts of an enhancer triggered at 37° C. by addition of 1.12×10^-17 mol of alkaline phosphatase (AP). The reagent consists of a 0.33 mM solution of the dioxetane 5 in 0.2M 2-amino-2-methyl-1-propanol buffer, pH 9.6 containing 0.1, 0.25, 0.5 or 1 mg/mL of 1-(tri-n-octylphosphoniummethyl)-4-(tri-n-butyl-phosphoniummethyl)benzene dichloride (Enhancer A).
FIG. 2 is a graph showing a comparison of the time profile of the chemiluminescence intensity emitted by 100 μL of a reagent containing dioxetane 5 and various amounts of an enhancer triggered at 37° C. by addition of 1.12×10^-17 mol of AP. The reagents consist of a 0.33 mM solution of dioxetane 5 in 0.2M 2-amino-2-methyl-1-propanol buffer, pH 9.6 containing 0.01, 0.025, 0.1 or 0.5 mg/mL of polyvinylbenzyltributylphosphonium chloride co-polyvinylbenzyltri-octylphosphonium chloride (containing a 3:1 ratio of tributyl:trioctyl groups), Enhancer B, the preparation of which is described in European Patent Application 561,033 published Sep. 22, 1993.
FIG. 3 is a graph showing a comparison of the time profile of the chemiluminescence intensity emitted by 100 μL of enhanced reagents containing either dioxetane 2 (LUMIGEN PPD, Lumigen, Inc., Southfield, Mich.) or 5 triggered at 37° C. by addition of 1.12×10^-17 mol of AP. The reagents consist of 1) a 0.33 mM solution of dioxetane 2 in 0.2M 2-amino-2-methyl-1-propanol buffer, pH 9.6 containing 1.0 mg/mL of the enhancer 1-(tri-n-octylphosphoniummethyl)-4-(tri-n-butylphosphoniummethyl) benzene dichloride, and 2) a 0.33 mM solution of dioxetane 5 in 0.2M 2-amino-2-methyl-1-propanol buffer, pH 9.6 containing 0.1 mg/mL of the same enhancer.
FIG. 4 is a graph showing a comparison of the time profile of the chemiluminescence intensity emitted by 100 μL of another pair of enhanced reagents containing either dioxetane 2 or 5 triggered at 37° C. by addition of 1.12×10^-17 mol of AP. The reagents consist of 1) a 0.33 mM solution of dioxetane 2 in 0.2M 2-amino-2-methyl-1-propanol buffer, pH 9.6 containing 0.5 mg/mL of Enhancer B and 2) a 0.33 mM solution of dioxetane 5 in 0.2M 2-amino-2-methyl-1-propanol buffer, pH 9.6 containing 0.25 mg/mL of the same enhancer.
as §1
A concentration dependence study was conducted in an effort to find the optimum amount of enhancer A to use in the alkaline phosphatase-induced chemiluminescent reaction of dioxetane 5. Solutions of dioxetane 5 in 0.2M 2-methyl-2-amino-1-propanol buffer, pH 9.6 containing 0.88 mM Mg^+2 and 1, 0.5, 0.25 or 0.1 mg/mL of Enhancer A were prepared. […]

[4] = system: Calf intestinal alkaline phosphatase (AP); assay: Relative chemiluminescence quantum yields (total light after complete dephosphorylation by AP); type: biochemical
Description: as §1
The relative chemiluminescence quantum yields of dioxetanes 2 and 5 were determined in formulations containing 1 mg/mL or 0.1 mg/mL of Enhancer A in 0.2M 2-amino-2-methyl- 1-propanol buffer, pH 9.6 containing 0.88 mM Mg^+2. A 100 μL aliquot of each reagent was completely dephosphorylated by addition of 3.36×10^-13 mol of alkaline phosphatase. The total amount of light emitted in Relative Light Units (RLU) was integrated until light emission ceased. A similar comparison was also made with 500 μL portions of formulations without any enhancer using 0.75M 2-amino-2-methyl-1-propanol buffer, pH 9.6 containing 0.88 mM Mg^+2.

[5] = system: Calf intestinal alkaline phosphatase (AP); assay: Chemiluminescent detection of alkaline phosphatase on membrane; type: biochemical; settings: 1 mg/mL Enhancer A, pH 9.6, 0.33 mM dioxetane, AP 1.1 fmol to 1.1 amol, X-ray film (FIG. 6)
Description: FIG. 6 is a digitally scanned image of an X-ray film from an experiment detecting alkaline phosphatase on a membrane with chemiluminescence. Solutions of alkaline phosphatase in water containing from 1.1×10^-15 to 1.1×10^-18 mol were applied to identical nylon membranes (Micron Separations Inc., Westboro, Mass). The membranes were air dried for 5 min and soaked briefly with a reagent containing 1 mg/mL of Enhancer A in 0.2M 2-amino-2-methyl-1-propanol buffer, pH 9.6 containing 0.88 mM MgCl and either 0.33 mM dioxetane 2 or 0.33 mM dioxetane 5. The membranes were placed between transparent plastic sheets and exposed to X-ray film (Kodak X-OMAT AR, Rochester, N.Y.).
Calf intestinal alkaline phosphatase (AP) was obtained from Biozyme (San Diego, Calif.). Other chemical reagents were obtained from Aldrich Chemical Co. (Milwaukee). Nuclear magnetic resonance (NMR) spectra were obtained on a Varian Gemini 300 spectrometer as solutions in D2 O or CDCl3. […] Temperature control of samples analyzed in the commercial luminometers was achieved by means of a circulating bath connected to the instrument. Quantitative measurement of light intensities on the Turner luminometer was extended beyond the 10^4 linear range of the detector by a neutral density filter. […]

[6] = Composition A: 0.33 mM dioxetane, 0.2M 2-methyl-2-amino-1-propanol buffer pH 9.6, 1.0 mg/mL Enhancer A, 100 μL, 3.36×10^-16 mol AP
[7] = Composition B: 0.33 mM dioxetane, buffer pH 9.6, 0.5 mg/mL Enhancer B, 100 μL, 3.36×10^-16 mol AP
[8] = Composition C: 0.33 mM dioxetane, buffer pH 9.6, no enhancer, 500 μL, 1.12×10^-15 mol AP
[9] = Enhancer A 1 mg/mL, 100 μL, 0.2M buffer pH 9.6, 3.36×10^-13 mol AP
[10] = No enhancer, 500 μL, 0.75M 2-amino-2-methyl-1-propanol buffer pH 9.6, 0.88 mM Mg+2

Compound | t1/2 of decay of chemiluminescence [1] [min] | Time to Reach 95% of Maximum Light Intensity from Alkaline Phosphatase-Triggering [2, 6] [min] | Time to Reach 95% of Maximum Light Intensity from Alkaline Phosphatase-Triggering [2, 7] [min] | Time to Reach 95% of Maximum Light Intensity from Alkaline Phosphatase-Triggering [2, 8] [min] | Total Light Intensity [4, 9] | Total Light Intensity [4, 10] | also measured
O=P(O)(O)Oc1cccc(C2(OCC(F)(F)F)OOC23C2CC4CC(C2)CC3C4)c1 (stereo not drawn) [Dioxetane 5] |  | 6 | 4.3 | 4.5 | 1.23 × 10^7 RLU | 9.65 × 10^4 RLU | Plateau light intensity compared to dioxetane 2 ([2]; Composition A): higher plateau light intensity; Chemiluminescence intensity and time profile compared to dioxetane 2 (1 mg/mL Enhancer A) ([3]; 0.33 mM dioxetane 5 with 0.1 mg/mL Enhancer A, 37° C., 1.12×10^-17 mol AP (FIG. 3)): reaches a significantly higher maximum intensity and reaches a plateau much more rapidly; also recorded: more intense chemiluminescence under these conditions but also a shorter delay until the maximum intensity is reached; Chemiluminescence intensity and time profile compared to dioxetane 2 (0.5 mg/mL Enhancer B) ([3]; 0.33 mM dioxetane 5 with 0.25 mg/mL Enhancer B, 37° C., 1.12×10^-17 mol AP (FIG. 4)): reaches a higher light intensity in the first 15 minutes; also recorded: a higher light intensity within the first 15 min; Plateau light intensity and rise time vs. amount of Enhancer A ([3]; Enhancer A 1, 0.5, 0.25 or 0.1 mg/mL, pH 9.6, 37° C., 1.12×10^-17 mol AP (FIG. 1)): increasingly higher plateau light intensities and slower rise times as the amount of enhancer is reduced; Rise time vs. amount of Enhancer B ([3]; Enhancer B 0.5 to 0.01 mg/mL, pH 9.6, 37° C., 1.12×10^-17 mol AP (FIG. 2)): slower rise times as the amount of enhancer is reduced from 0.5 to 0.01 mg/mL; Total Light Intensity ([4]; Enhancer A 0.1 mg/mL, 100 μL, 0.2M buffer pH 9.6, 3.36×10^-13 mol AP): 1.01 × 10^7 RLU; Total light produced compared to dioxetane 2 ([4]; with or without Enhancer A): produces more light than dioxetane 2; Image intensity and detection sensitivity on nylon membrane compared to dioxetane 2 [5]: more intense images and better detection sensitivity
COC1(c2cccc(O)c2)OOC12C1CC3CC(C1)CC2C3 (stereo not drawn) [Dioxetane 1] | 15.9 |  |  |  |  |  | 
Oc1cccc(C2(OCC(F)(F)F)OOC23C2CC4CC(C2)CC3C4)c1 (stereo not drawn) [Dioxetane 3] | 2.0 |  |  |  |  |  | 
COC1(c2cccc(OP(=O)(O)O)c2)OOC12C1CC3CC(C1)CC2C3 (stereo not drawn) [Dioxetane 2] |  | 32 | 37 | 6 | 9.24 × 10^6 RLU | 4.41 × 10^4 RLU | Rise time to maximum light intensity ([3]; Enhancer B reduced from 3 mg/mL to 0.1 mg/mL): essentially constant at an hour or more; Rise time to maximum light intensity ([3]; all concentrations of Enhancer A from 0.1 mg/mL to 3 mg/mL): an hour or more

More lines, main results first:

t1/2 of decay of chemiluminescence [1] [min] | Compound | Time to Reach 95% of Maximum Light Intensity from Alkaline Phosphatase-Triggering [2, 6] [min] | Time to Reach 95% of Maximum Light Intensity from Alkaline Phosphatase-Triggering [2, 7] [min] | Time to Reach 95% of Maximum Light Intensity from Alkaline Phosphatase-Triggering [2, 8] [min] | Total Light Intensity [4, 9] | Total Light Intensity [4, 10] | also measured
2.8 | Oc1cccc(C2(OCC(F)F)OOC23C2CC4CC(C2)CC3C4)c1 (stereo not drawn) [Dioxetane 7] |  |  |  |  |  | 
6.1 | Oc1cccc(C2(OCCF)OOC23C2CC4CC(C2)CC3C4)c1 (stereo not drawn) [Dioxetane 8] |  |  |  |  |  | 
